Experimental findings from US8754094B2, “Methods for heat shock protein dependent cancer treatment” (The Research Foundation of State University of New York, priority 2007, dated 2014) are described below.

One series deals with RPMI-8226. Kind of series: Growth inhibition of MM cell line RPMI-8226. The class given is cell-based, human. The following applies: RPMI-8226 compared to NCI-H929. As for the experimental part:
(§1) Viability was estimated according to the following formula: […]
(§2) Control cells were cultured in DMSO.

The subject of series [1] is normal control BM, PBMC, and EPC populations. Briefly: MTS survival assay, normal control cells. The class given is cell-based. The following applies: FIG. 36D. How it is done: MAL3-101 (the structure is shown as the final product in FIG. 12, in FIG. 13, and in FIG. 25B), the proteasome inhibitor MG-132 (A.G. Scientific, San Diego, Calif.) and the Hsp90 inhibitor 17-allylamino-17-demethoxygeldanamycin (17-AAG) (Calbiochem/EMD Biosciences, San Diego, Calif.) were dissolved in dimethylsulfoxide (DMSO; Sigma-Aldrich, St. Louis, Mo.), and stored at −20° C. Final concentration of DMSO was 0.03% and this was used to treat control cells. The MM cell lines examined were NCI-H929, RPMI-8226, and U266 (ATCC, Manassas, Va.). Normal peripheral blood mononuclear cells (PBMC) and bone marrow (BM) cells were obtained from StemCell Technologies (Vancouver, Canada). Primary MM cells and EPCs were from BM aspirates of newly-diagnosed patients following informed consent. MM cells were enriched to >95% CD138^+ cells by positive selection, using anti-CD138 MACS Microbeads according to the manufacturer's instructions (Miltenyi, San Diego, Calif.). […]

The next series concerns NCI-H929. Kind of series: cells. How it is done: For cell survival assays, cells were plated in 96-well culture plates (BD Biosciences, San Jose, Calif.), 100,000 cells/well with 200 μl, of culture media. The effect of the drugs on cell survival was assessed, for example, by measuring 3-(4,5-dimethylthiazol-2-yl)-5-(3-carboxymethoxyphenyl)-2-(4-sulphophenyl)-2H-tetrazolium, inner salt (MTS) (Promega, Madison, Wis.) dye absorbance of viable cells by adding 40 μL of 5 mg/mL MTS to each well for the last 4 hours of drug exposure. Additional wells containing cells only (untreated control) or medium only (background medium control) were used as controls. Absorbance at 490 nm (A490) was measured using a spectrophotometer (Dynatech Laboratories, Chantilly, Va.). Viability was estimated according to the following formula: […]
Briefly, the cellular fraction affected (Fa) was calculated based on an MTS assay after exposing cells to the drugs alone or in combination at a given dose compared to untreated cells, using the formula: Fa=100−% Viable Cells. Fa values were entered into Calcusyn software (Biosoft, Ferguson, Mo. and Cambridge, United Kingdom) to obtain CI values. CI values <1.0 indicated a synergistic effect of the drugs used in combination. For Inhibitory Concentration, or IC, calculations, dose-effect curves for MAL3-101, MG-132, 17-AAG, and their combinations were used to interpolate the median inhibitory concentration that caused 30% (IC30), 50% (IC50), and 70% (IC70) reductions in the % viable cells compared to untreated cells.
Cells (1×10^5) were plated in 96-well microtiter plates (Costar, Cambridge, Mass.) in 100 μL, of growth medium and exposed for indicated periods to various concentrations of compounds or their combinations. Control cells were cultured in DMSO. All studies were performed in triplicate and repeated at least three times independently. Survival was measured by an MTS assay (Promega, Madison, Wis.) as per the manufacturer's directions. The absorbance (A450) ratio of treated to untreated cells, after the subtraction of background absorbance, was multiplied by 100 to obtain percent cell survival. Cell death was measured by trypan blue dye exclusion in identically plated cultures.
DMSO-treated cultures were compared to drug-treated cultures by Student's t tests or by Dunnett's post-hoc test following significant repeated-measures one-way analysis of variance. All tests were two-tailed, and statistical significance was set at P≦0.05. Isobologram analysis was performed to derive combination index (CI) values based upon the Chou-Talalay method using CalcuSyn software (Biosoft, Ferguson, Mo. and Cambridge, United Kingdom) as described in L. Catley, E. Weisberg, T. Kiziltepe, Y. T. Tai, T. Hideshima, P. Neri, P. Tassone, P. Atadja, D. Chauhan, N. C. Munshi, K. C. Anderson, Aggresome induction by proteasome inhibitor Bortezomib and {alpha}-tubulin hyperacetylation by tubulin deacetylase (TDAC) inhibitor LBH589 are synergistic in myeloma cells, Blood (2006), which is incorporated herein by reference.

For a further series, the system named is U266. Briefly: Growth inhibition of MM cell line U266. Type of series: cell-based, human. The following applies: U266 compared to NCI-H929. As for the experimental part:
as §1, §2

Series [2] deals with EPCs from multiple myeloma patients. Kind of series: MTS survival assay, endothelial progenitor cells (EPCs) from MM patients. The class given is cell-based, human. Particulars: FIG. 36C. How it is done: (§3) For endothelial progenitor cells (EPC) outgrowth, bone marrow were further separated using Ficoll-Hypaque (Sigma Chemicals, St Louis, Mo.) density-gradient centrifugation and mononuclear cells were cultured (7×10^6 cells/well) in laminin-coated, 6-well plates (Becton Dickinson Labware, Bedford, Mass.) in EndoCult Basal Medium supplemented with 20% fetal bovine serum (StemCell Technologies, Vancouver, Canada) and antibiotics (100 U/ml penicillin G, 100 μg/ml streptomycin) until confluent. […] Outgrown EPCs were identified by the expression of endothelial and progenitor cell surface markers, including von Willebrand factor (a blood glycoprotein involved in coagulation), vascular endothelial-cadherin (where cadherins are a class of transmembrane proteins), vascular endothelial growth factor receptor-2, CD34, and CD133, as well as the absence of the MM marker CD38, determined by immunocytochemistry and flow cytometry. EPCs were passaged when they were 60-70% confluent by trypsin-ethylenediaminetetraacetic acid (EDTA) treatment (Invitrogen, Carlsbad, Calif.) onto 96-well culture plates (BD Biosciences, San Jose, Calif.). […]

Experiment in series [3]: as above
The class given is cell-based, human. Particulars: human, EPCs of MM patients, FIG. 36C, read-out: reduction of viability of EPCs. How it is done:
as §3

The mark [4] stands for this setting: read-out: IC50 (reduction of % viable cells), single agent, NCI-H929, 40 h exposure, MTS assay, agent alone.

“Also recorded” adds a separate entry of the source. Where two headings read alike, the source gives them in different places. Residues, ends and D or L forms follow the SMILES beside them. *: point of attachment. Cbz = O=C(OCc1ccccc1)*

As a reminder, the IC50 is the concentration needed to halve the response being measured. On to `CCCCCCN(C(=O)CCCCCN1C(=O)NC(c2ccc(-c3ccccc3)cc2)C(C(=O)OCc2ccccc2)=C1C)C(C(=O)NCCCC)c1ccc(OCC(=O)OC)c(C(=O)OC)c1` (centres unmarked) [MAL3-101], for which the “sensitivity to MAL3-101-induced growth inhibition” value with RPMI-8226 and in the series with U266 was “less sensitive” throughout. In addition, the “cytotoxicity in normal control cells” value in series [1] is “lack of cytotoxicity; also recorded: lack of sensitivity”. The “cytotoxicity compared among MM cell lines” value in the series on NCI-H929 (10 μM, NCI-H929 versus RPMI-8226 and U266) is listed as “most sensitive; also recorded: highest level of cytotoxicity”. The IC50 in the series with NCI-H929 (setting [4]) was determined as 8.3 µM; with NCI-H929 (read-out: IC50 as stated in the detailed description, multiple myeloma cells, rounded statement of the description) it was 10 µM. Moreover, the “reduction of viability of EPCs” value in series [2] is 10±14%.

As for `CC(C)C[C@@H](C=O)NC(=O)[C@H](CC(C)C)NC(=O)[C@H](CC(C)C)NC(=O)OCc1ccccc1` [MG-132, reference compound] (Cbz-Leu-Leu-Leu-aldehyde), the IC50 in the series on NCI-H929 (Homo sapiens, NCI-H929, 40 h, read-out: IC50 (reduction of % viable cells), single agent, NCI-H929, 40 h exposure, MTS assay, agent alone) stood at 1 µM; in the series with NCI-H929 (Homo sapiens, NCI-H929, 40 h, read-out: IC50 of MG-132 in the presence of MAL3-101, NCI-H929, 40 h, MTS, MAL3-101 and MG-132 at equal concentrations) it was 0.01 µM; in the series with NCI-H929 (setting [4]), 1.7 µM. In addition, the cytotoxicity in series [3] is 16 ± 17%.
